According to patent US8633177B2, “Nitroxyl (HNO) releasing compounds and uses thereof in treating diseases” (The United States of America, as represented by the …, priority 2010, dated 2014):
Read-outs that look alike come from different tables or passages of the source.

Columns and labels:
COX-2 mRNA = assay: COX mRNA levels; format: cell-based; details: Control 1.0
Description: PGE2 levels are a direct measure of COX-2 activity. […] Increased COX-2 expression in the presence of aspirin has been reported previously (Davies et al., Alimentary Pharm. & Ther. 11(6):1101-08 (1997))). Both DEA/NO and DEA/NO-aspirin seem to augment the effect of aspirin while IPA/NO and IPA/NO-aspirin nullifies the effect and brings it back to the control level (Table 3).

[1] = test system: MB-231 breast cancer cell lines
Method: (§2) Intracellular NO/HNO release from the derivatized NSAIDs was determined using 4-amino-5-methylamino-2′,7′-difluorofluoroescein diacetate (DAF-FM diacetate) as in Example 9.

[2] = test system: MB-231 breast cancer cell lines; assay: DAF assay of cell membrane penetration, MB-231; details: MB-231 cell line
Method: as §2

[3] = NO quantified by chemiluminescence during hydrolysis; format: physicochemical; details: neutral pH
Method: In addition to HNO measurements as described above by reductive nitrosylation of metmyoglobin, NO was quantified by chemiluminescence assay, N2O by gas chromatography, and nitrite ion by the Griess assay.
Detection of HNO was also carried out using the chemiluminescence method in, 1 mM ferricyanide solution.

porcine liver esterase = assay: Esterase-catalyzed hydrolysis followed by UV spectrophotometry; format: in vitro ADME; details: pH 7.4
Method: FIGS. 4A-C are graphs illustrating spontaneous hydrolysis (FIGS. 4A and 4B) and esterase-catalyzed hydrolysis (FIG. 4C) of 2 in an embodiment of the invention. In FIG. 4A, spectra were collected every 60 s (10-min intervals shown) after dissolving 2 in PBS (pH 7.4) at 37° C., and only loss of the parent compound was observed. In FIG. 4B, the pH was elevated to 12, and scans were collected every 0.5 s (through 2.5 s and 3.5, 5.5, 9.5, and 54.5 shown). In FIG. 4C, porcine liver esterase (20 μL in 3 mL) was added (pH 7.4), and spectra were collected every 10 s. Hydrolysis of 2 (λmax 236 nm) to 1 (λmax 250 nm) was complete within 40 s (0.067 s^−1) under these conditions. […] Elevation of the intensity near 200 nm indicated formation of autoxidation products such as nitrite. Deaeration inhibited this peak (data not shown).
(§1) The rate constants of decomposition were measured spectrophotometrically by monitoring the decrease in absorbance of peaks at ˜240-250 nm characteristic of the diazeniumdiolate functionality. The hydrolysis medium consisted of the metal chelator diethylenetriaminepentaacetic acid (DTPA, 50 μM) in calcium- and magnesium-free Dulbecco's phosphate-buffered saline (PBS, pH 7.4). UV-visible spectroscopy was performed with a Hewlett-Packard 8453 diode-array spectrophotometer equipped with Agilent 89090A thermostat set to 37° C. The spectrophotometer was blanked after warming the cuvette containing buffer at the appropriate pH in the instrument heat block for 5 min. For esterase-containing reactions, porcine liver esterase (20 μL; Sigma; suspension in 3.2 M (NH4)2SO4, pH 8) was added to the reaction buffer before blanking. Upon addition of IPA/NO (1) or AcOM-IPA/NO (2) (≦10 μL of stock), the cuvette was capped and inverted to mix. Spectra were collected at 0.5- to 60-s intervals for time periods of 2-120 min or until A∞<0.05. Kinetic analysis was performed by fitting the data to an exponential decay (A=ΔAe^−kt+A∞) using KaleidaGraph v.3.1.

[4] = Spontaneous decomposition kinetics by UV spectrophotometry in PBS; format: physicochemical
Method: as §1
To gain insight into the mechanistic origins of this unexpected finding, the pH/rate profiles of the diazeniumdiolates 1 and 2 were explored. As previously established and shown in FIG. 3A, hydrolysis of 1 slowed as the pH was increased from 3 to 10, with a small increase in rate thereafter. This was the opposite of the results with 2, whose hydrolysis rate was essentially first order in hydroxide ion concentration between pH 5 and 11 (FIG. 3B).

[5] = Hydrolysis at pH 11 followed by NMR; format: physicochemical
Method: Organic products of the hydrolysis of 1 and 2 were quantified by integrating their NMR spectra. For pH 7.4, 3.9 mM solutions in 0.1 M phosphate buffer were employed. For pH 11, 4.9 mM solutions of 1 and 2 in 50 mM sodium carbonate were studied. Samples were run on a Varian Inova 400 MHz NMR with a Dell Precision 390 workstation. The samples were run at 37° C. and water suppression was achieved by using the preset pulse sequence. Peaks were identified by comparison with authentic standards.

ventricular myocytes = assay: Sarcomere shortening in isolated ventricular myocytes; format: cell-based, C57BL/6 male mice; details: 3 μM
Method: A stock solution of 2 in DMSO was freshly prepared prior to each experiment and stored on ice protected from the light. Liberase blendzyme 3 was purchased from Roche Diagnostics (Mannheim) while CaCl2, DMSO, and glucose were purchased from Merck (Darmstadt). Calcium-free perfusion buffer contained 113 mM NaCl, 4.7 mM KCl, 0.6 mM KH2PO4, 0.6 mM Na2HPO4, 1.2 mM MgSO4, 12 mM NaHCO3, 10 mM KHCO3, 30 mM taurine, 5.5 mM glucose, 10 mM 2,3-butanedione monoxime, and 10 mM 4-(2-hydroxyethyl)-1-piperazineethanesulfonic acid (HEPES) at pH 7.4. Digestion buffer contained an additional 0.1 mg/mL of recombinant collagenases/proteases (Liberase blendzyme 3) and 12.5 μM CaCl2. IonOptix solution for the sarcomere shortening measurements contained 135 mM NaCl, 4.7 mM KCl, 0.6 mM KH2PO4, 0.6 mM Na2HPO4, 1.2 mM MgSO4, 1.25 mM CaCl2, 20 mM glucose, and 10 mM HEPES at pH 7.46.
C57BL/6 male mice (13-15 weeks) were used in the present study. Ventricular myocytes were isolated from wild type hearts using a modified protocol of O'Connell et al., (AfCS Research Reports, 1(5): 1-9 (2003)). […] After further centrifugation, ionOptix buffer was added on the pellet and sarcomere shortening was assessed on field stimulation (1 Hz with 4-ms duration, 10 V) using a video-based sarcomere length detection system (IonOptix Corporation) at room temperature.

[6] = porcine liver esterase 20 μL in 3 mL

For CCN(CC)[N+]([O-])=N[O-].[Na+] [DEA/NO, O^2-Sodium 1-(N,N-Diethylamino)diazen-1-ium-1,2-diolate, reference compound], the “COX-2 mRNA level relative to control” value (COX-2 mRNA) was 6.0.
In the case of COc1ccc2c(c1)c(CC(=O)OCON=[N+]([O-])NC(C)C)c(C)n2C(=O)c1ccc(Cl)cc1 [IPA/NO-indomethacin, O^2-(methyl2-(1-(4-chlorobenzoyl)-5-methoxy-2-methyl-1H-indol-3-yl)acetate)-1-(N-isopropylamino)-diazen-1-ium-1,2-diolate], the cell membrane penetration [1] is reported as “penetrated cell membranes”.
For CCN(CC)[N+]([O-])=NOCOC(=O)Cc1c(C)n(C(=O)c2ccc(Cl)cc2)c2ccc(OC)cc12 [DEA/NO-indomethacin, O^2-(methyl2-(1-(4-chlorobenzoyl)-5-methoxy-2-methyl-1H-indol-3-yl)acetate)-1-(N,N-Diethylamino)-diazen-1-ium-1,2-diolate], the cell membrane penetration [1] was “penetrated cell membranes”.
For CC(C)N[N+]([O-])=NOC(=O)c1cccnc1Nc1cccc(C(F)(F)F)c1 [IPA/NO-niflumic acid, O^2-(2-(3-(trifluoromethyl)phenylamino)nicotinate)-1-(N-isopropylamino)-diazen-1-ium-1,2-diolate], the cell membrane penetration [2] was “penetrated cell membranes”.
With CC(C)N[N+]([O-])=N[O-].[Na+] [Compound 1, sodium 1-(N-isopropylamino)diazen-1-ium-1,2-diolate, reference compound] the “species produced on spontaneous hydrolysis” value [3] was “produced both NO and HNO”, the “rate of decay of 1” value (porcine liver esterase; FIG. 4C, esterase present) was 0.0033 s⁻¹ and the “COX-2 mRNA level relative to control” value (COX-2 mRNA) was 1.2. The “rate of decay of 1” value ([4]; FIG. 3A, PBS with 50 μM DTPA, 37° C.) was 0.0012 s⁻¹, the “hydrolysis rate relative to 2” value ([4]; pH 11, more slowly than 2) was 100 fold and the “hydrolysis at pH 11” value ([5]; pH 11) was “hydrolyzed slowly”.
In the case of CC(=O)OCO/N=[N+](\[O-])NC(C)C [Compound 2, O^2-(acetoxymethyl)1-(isopropylamino)diazen-1-ium-1,2-diolate], the “total amount of NO detected on hydrolysis” value ([3]; NO-specific chemiluminescence detector) is reported as “less than 1 % of theoretical yield”, the “rate of hydrolysis of 2 to 1” value (porcine liver esterase; [6]) is reported as 0.067 s⁻¹ and the “time to complete hydrolysis of 2 to 1” value (porcine liver esterase; [6]) is reported as ≤ 40 s. The “hydrolysis rate relative to 1” value ([4]; physiological pH) was “an order of magnitude slower”, the “time to complete dissociation” value ([5]; 37° C., pH 11 carbonate buffer) was ≤ 5 min and the “change in sarcomere shortening relative to baseline, versus 1” value (ventricular myocytes) was “approximately 4 fold”.
